# PMC7069776 (Journal of medicinal chemistry, 2019)
# Experiments:
# [1] = tested on: C. albicans Hsp90 NBD; settings: cited from earlier work
# [2] = tested on: C. albicans clinical isolate (CaCi2); experiment: Antifungal sensitivity testing; type: cell-based; settings: CaCi2, cultures spotted on compound-free YPD agar, 30 °C, 24 h
# [3] = tested on: C. neoformans (Strain H99); settings: H99, RPMI 1640, 37 °C (Fig. 4A)
# [4] = target: Hsp90 (Candida albicans, UniProt P46598); experiment: biochemical
# Sequence of Hsp90 (P46598 whole entry): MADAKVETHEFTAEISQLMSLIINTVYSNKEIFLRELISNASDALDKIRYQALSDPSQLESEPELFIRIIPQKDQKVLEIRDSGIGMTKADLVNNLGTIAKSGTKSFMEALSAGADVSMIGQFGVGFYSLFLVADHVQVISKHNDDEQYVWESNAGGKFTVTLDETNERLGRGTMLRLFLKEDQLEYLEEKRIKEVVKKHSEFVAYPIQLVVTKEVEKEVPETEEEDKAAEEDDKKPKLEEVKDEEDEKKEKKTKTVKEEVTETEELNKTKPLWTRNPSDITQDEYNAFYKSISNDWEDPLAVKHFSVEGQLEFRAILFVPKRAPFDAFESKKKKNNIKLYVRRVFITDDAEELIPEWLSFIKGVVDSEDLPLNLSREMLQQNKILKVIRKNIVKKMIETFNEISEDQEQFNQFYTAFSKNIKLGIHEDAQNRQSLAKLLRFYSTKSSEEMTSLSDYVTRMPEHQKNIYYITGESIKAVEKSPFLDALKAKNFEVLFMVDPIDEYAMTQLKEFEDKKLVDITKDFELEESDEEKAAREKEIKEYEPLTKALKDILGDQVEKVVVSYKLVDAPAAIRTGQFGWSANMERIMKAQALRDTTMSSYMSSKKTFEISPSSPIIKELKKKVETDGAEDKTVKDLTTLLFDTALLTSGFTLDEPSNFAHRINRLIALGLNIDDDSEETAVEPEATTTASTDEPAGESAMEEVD
EC50 [4],Compound,fungicidal activity in combination with fluconazole [2],other results
–,COc1ccc(CO\N=C2/C=C/C=C\[C@H]3O[C@@H]3C[C@@H](C)OC(=O)c3c(O)cc(O)cc3C2)cc1 [CMLD013075],–,binding selectivity for the C. albicans Hsp90 NBD compared to the human ortholog [1]: > 25 fold
–,"COc1ccc(Cn2ncc(C)c2Nc2cc(O)cc(O)c2C(=O)N2Cc3ccccc3C2)cc1 [Compound 41, 4-(2,3-Dihydro-1H-isoindole-2-carbonyl)-5-((1-((4-methoxyphenyl)methyl)-4-methyl-1H-pyrazol-5-yl)amino)benzene-1,3-diol]",fungicidal activity,–
–,"Cc1ccccc1-c1cc(Nc2cc(O)cc(O)c2C(=O)N2Cc3ccccc3C2)n(C)n1 [Compound 106, 4-(2,3-Dihydro-1H-isoindole-2-carbonyl)-5-((1-methyl-3-(2-methylphenyl)-1H-pyrazol-5-yl)amino)benzene-1,3-diol]",–,concentration inhibiting growth of C. neoformans [3]: below 10 μM
–,"Cc1cc(Nc2cc(O)cc(O)c2C(=O)N2Cc3ccccc3C2)n(Cc2ccccc2Cl)n1 [Compound 89, 5-((1-((2-Chlorophenyl)methyl)-3-methyl-1H-pyrazol-5-yl)amino)-4-(2,3-dihydro-1H-isoindole-2-carbonyl)benzene-1,3-diol]",fungicidal activity,–
–,"COc1ccc(Cn2nc(-c3ccccc3)cc2Nc2cc(O)cc(O)c2C(=O)N2Cc3ccccc3C2)cc1 [Compound 21, 4-(2,3-dihydro-1H-isoindole-2-carbonyl)-5-((1-((4-methoxyphenyl)methyl)-3-phenyl-1H-pyrazol-5-yl)amino)benzene-1,3-diol]",fungicidal activity,–
> 10 µM,"CCN(CC)C(=O)c1c(O)cc(O)cc1Nc1cc(-c2ccccc2)nn1Cc1ccc(OC)cc1 [Compound 39, N,N-Diethyl-2,4-dihydroxy-6-((1-((4-methoxyphenyl)methyl)-3-phenyl-1H-pyrazol-5-yl)amino)benzamide]",–,–
> 9 µM,"COc1ccc(Cn2nc(-c3ccccc3)cc2Nc2cc(O)cc(O)c2C(=O)N(C)CC2CC2)cc1 [Compound 31, N-(Cyclopropylmethyl)-2,4-dihydroxy-6-((1-((4-methoxyphenyl)methyl)-3-phenyl-1H-pyrazol-5-yl)amino)-N-methylbenzamide]",–,–
> 9 µM,"COc1ccc(Cn2nc(C)cc2Nc2cc(O)cc(O)c2C(=O)N(C)CC2CC2)cc1 [Compound 30, N-(Cyclopropylmethyl)-2,4-dihydroxy-6-((1-((4-methoxyphenyl)methyl)-3-methyl-1H-pyrazol-5-yl)amino)-N-methylbenzamide]",–,–
–,"Cn1nc(-c2ccc(OC(F)(F)F)cc2)cc1Nc1cc(O)cc(O)c1C(=O)N1Cc2ccccc2C1 [Compound 130, 4-(2,3-Dihydro-1H-isoindole-2-carbonyl)-5-((1-methyl-3-(4-(trifluoromethoxy)phenyl)-1H-pyrazol-5-yl)amino)benzene-1,3-diol]",fungicidal,–
> 6 µM,"COc1ccc(Cn2nc(C)cc2Nc2cc(O)cc(O)c2C(=O)N(C)Cc2ccccc2)cc1 [Compound 37, N-Benzyl-2,4-dihydroxy-6-((1-((4-methoxyphenyl)methyl)-3-methyl-1H-pyrazol-5-yl)amino)-N-methylbenzamide]",–,–
